≈ marks a conversion by molar mass, not a printed value.

By IC50 is commonly meant the concentration that inhibits the measured activity by half.

The assay has as its system Plasmodium falciparum. Briefly: In vitro inhibition of Plasmodium falciparum W2. The assay is classed as functional, organism-based.
`C[C@@]12CC[C@H]3CC[C@@](C)(c4ccccc4)C[C@]3(CO1)OO2` returned a half-maximal inhibitory concentration (IC50) of 0.132 µg/mL (≈ 0.458 µM).

Turning to `C[C@@H]1CC[C@H]2[C@@H](C)C(=O)O[C@@H]3O[C@@]4(C)CC[C@@H]1[C@]32OO4` [ARTEMISININ], the 50% inhibitory concentration (IC50) worked out at 0.0042 µg/mL (≈ 0.0149 µM). In turn, `C[C@@]12CC[C@H]3CC[C@](C)(c4ccccc4)C[C@]3(CO1)OO2` came in with an IC50 of 0.013 µg/mL (≈ 0.0451 µM).

The values above are taken from ChEMBL document CHEMBL1152028, “The synthesis of 8,8-disubstituted tricyclic analogs of artemisinin” (Bioorg Med Chem Lett, 1997).
